From PubChem BioAssay AID248 (DTP/NCI, 2004)
Several values for one entry are separate records, joined by “and”; a condition that tells them apart may be missing. Identical values can stand only once. Toxic doses and inconclusive results are not listed. Rule as the data show it: active = T/C of 150% or more; inactive = T/C below 125%.

System: L1210 leukemia ip in BDF1 mice, survival T/C
Assay: NCI In Vivo Anticancer Drug Screen. Data for tumor model L1210 Leukemia (intraperitoneal) in B6D2F1 (BDF1) mice
Details: endpoint: mean survival time, higher = longer survival
Outline: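 Tumor cells were implanted, animals were treated, and survival was followed. The result divides the treated measurement by the vehicle-control measurement.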

[1] = dose: 100.0 mg/kg/injection, schedule: Q01DX001 (ip), vehicle: saline with Tween-80
[2] = dose: 100.0 mg/kg/injection, schedule: Q01DX009 (ip), vehicle: saline with Tween-80
[3] = dose: 100.0 mg/kg/injection, schedule: Q04DX002 (ip), vehicle: saline with Tween-80
[4] = dose: 200.0 mg/kg/injection, schedule: Q01DX001 (ip), vehicle: saline with Tween-80
[5] = dose: 200.0 mg/kg/injection, schedule: Q01DX009 (ip), vehicle: saline with Tween-80
[6] = dose: 200.0 mg/kg/injection, schedule: Q04DX002 (ip), vehicle: saline with Tween-80
[7] = dose: 400.0 mg/kg/injection, schedule: Q01DX001 (ip), vehicle: saline with Tween-80
[8] = dose: 6.25 mg/kg/injection, schedule: Q01DX009 (ip), vehicle: saline
[9] = dose: 12.5 mg/kg/injection, schedule: Q01DX009 (ip), vehicle: saline
[10] = dose: 25.0 mg/kg/injection, schedule: Q01DX009 (ip), vehicle: saline
[11] = dose: 100.0 mg/kg/injection, schedule: Q04DX003 (ip), vehicle: saline with Tween-80
[12] = dose: 200.0 mg/kg/injection, schedule: Q04DX003 (ip), vehicle: saline with Tween-80
[13] = dose: 400.0 mg/kg/injection, schedule: Q04DX003 (ip), vehicle: saline with Tween-80
[14] = dose: 100.0 mg/kg/injection, schedule: Q01DX009 (ip), vehicle: saline
[15] = dose: 200.0 mg/kg/injection, schedule: Q01DX009 (ip), vehicle: saline
[16] = dose: 100.0 mg/kg/injection, schedule: Q01DX001 (ip), vehicle: Klucel (hydroxypropylcellulose) (HPC)
[17] = dose: 200.0 mg/kg/injection, schedule: Q01DX001 (ip), vehicle: Klucel (hydroxypropylcellulose) (HPC)
[18] = dose: 400.0 mg/kg/injection, schedule: Q01DX001 (ip), vehicle: Klucel (hydroxypropylcellulose) (HPC)
[19] = dose: 100.0 mg/kg/injection, schedule: Q04DX003 (ip), vehicle: Klucel (hydroxypropylcellulose) (HPC)
[20] = dose: 200.0 mg/kg/injection, schedule: Q04DX003 (ip), vehicle: Klucel (hydroxypropylcellulose) (HPC)
[21] = dose: 400.0 mg/kg/injection, schedule: Q04DX003 (ip), vehicle: Klucel (hydroxypropylcellulose) (HPC)

Measured: T/C

C=CCc1ccc(OC(=O)Nc2cc(Cl)ccc2OC)c(OC)c1
inactive: [1] 102 % of control | [2] 90 % of control | [3] 101 % of control and 91 % of control | [4] 90 % of control | [5] 96 % of control | [6] 95 % of control | [7] 90 % of control | dose: 400.0 mg/kg/injection, schedule: Q01DX009 (ip), vehicle: saline with Tween-80 95 % of control | dose: 400.0 mg/kg/injection, schedule: Q04DX002 (ip), vehicle: saline with Tween-80 87 % of control and 90 % of control

CC1=NCCc2ccccc21
inactive: [8] 92 % of control | [9] 95 % of control | [10] 90 % of control

CCOC(=O)C(O)c1ccccc1 (stereo not drawn)
inactive: [11] 98 % of control | [12] 98 % of control | [13] 98 % of control

CC(=O)OC1/C(=C/c2ccco2)CCC2CCCCC21C (stereo not drawn)
inactive: dose: 50.0 mg/kg/injection, schedule: Q01DX009 (ip), vehicle: saline 96 % of control | dose: 100.0 mg/kg/injection, schedule: Q01DX001 (ip), vehicle: saline 91 % of control | [14] 103 % of control | dose: 200.0 mg/kg/injection, schedule: Q01DX001 (ip), vehicle: saline 88 % of control | [15] 108 % of control | dose: 400.0 mg/kg/injection, schedule: Q01DX001 (ip), vehicle: saline 93 % of control

CS(=O)(=O)Nc1ccccc1OS(C)(=O)=O
inactive: dose: 75.0 mg/kg/injection, schedule: Q01DX001 (ip), vehicle: saline 102 % of control | dose: 150.0 mg/kg/injection, schedule: Q01DX001 (ip), vehicle: saline 106 % of control | dose: 300.0 mg/kg/injection, schedule: Q01DX001 (ip), vehicle: saline 106 % of control

O=C1OC2CC3CC1C2C3 (stereo not drawn)
inactive: dose: 5.0 mg/kg/injection, schedule: Q01DX001 (ip), vehicle: other 91 % of control | dose: 10.0 mg/kg/injection, schedule: Q01DX001 (ip), vehicle: other 91 % of control | dose: 10.0 mg/kg/injection, schedule: Q01DX001 (ip), vehicle: saline 101 % of control | dose: 12.5 mg/kg/injection, schedule: Q01DX009 (ip), vehicle: Klucel (hydroxypropylcellulose) (HPC) 98 % of control | dose: 20.0 mg/kg/injection, schedule: Q01DX001 (ip), vehicle: other 95 % of control | dose: 20.0 mg/kg/injection, schedule: Q01DX001 (ip), vehicle: saline 105 % of control | dose: 25.0 mg/kg/injection, schedule: Q01DX009 (ip), vehicle: Klucel (hydroxypropylcellulose) (HPC) 96 % of control | dose: 25.0 mg/kg/injection, schedule: Q04DX003 (ip), vehicle: Klucel (hydroxypropylcellulose) (HPC) 95 % of control | dose: 40.0 mg/kg/injection, schedule: Q01DX001 (ip), vehicle: other 94 % of control | dose: 40.0 mg/kg/injection, schedule: Q01DX001 (ip), vehicle: saline 99 % of control | dose: 50.0 mg/kg/injection, schedule: Q01DX001 (ip), vehicle: carboxymethylcellulose (CMC) 108 % of control | dose: 50.0 mg/kg/injection, schedule: Q01DX009 (ip), vehicle: Klucel (hydroxypropylcellulose) (HPC) 88 % of control | dose: 50.0 mg/kg/injection, schedule: Q04DX003 (ip), vehicle: Klucel (hydroxypropylcellulose) (HPC) 88 % of control | dose: 75.0 mg/kg/injection, schedule: Q01DX001 (ip), vehicle: acetone 97 % of control | dose: 100.0 mg/kg/injection, schedule: Q01DX001 (ip), vehicle: carboxymethylcellulose (CMC) 108 % of control

BrCc1cccc2cccnc12
inactive: dose: 1.56 mg/kg/injection, schedule: Q01DX009 (ip), vehicle: saline with Tween-80 93 % of control | dose: 3.13 mg/kg/injection, schedule: Q01DX009 (ip), vehicle: saline with Tween-80 96 % of control | dose: 6.25 mg/kg/injection, schedule: Q01DX009 (ip), vehicle: saline with Tween-80 91 % of control | dose: 12.5 mg/kg/injection, schedule: Q01DX009 (ip), vehicle: saline with Tween-80 91 % of control

O=C(c1ccccc1[N+](=O)[O-])C(Br)C(Br)c1cccc2ccccc12 (stereo not drawn)
inactive: dose: 50.0 mg/kg/injection, schedule: Q01DX009 (ip), vehicle: saline with Tween-80 96 % of control and 91 % of control | [1] 96 % of control | [2] 93 % of control and 94 % of control | [3] 93 % of control | [11] 90 % of control | [4] 96 % of control | [5] 86 % of control and 89 % of control | [6] 88 % of control and 90 % of control | [12] 91 % of control | [7] 100 % of control | [13] 88 % of control

CN1CCCCC1CCC1c2ccccc2CCc2ccccc21 (stereo not drawn)
inactive: dose: 1.56 mg/kg/injection, schedule: Q01DX009 (ip), vehicle: saline 104 % of control | dose: 3.12 mg/kg/injection, schedule: Q01DX009 (ip), vehicle: saline 104 % of control | [8] 98 % of control and 99 % of control | [9] 94 % of control and 103 % of control | [10] 107 % of control and 116 % of control

CN(C)S(=O)(=O)N(C)C
inactive: [16] 96 % of control | [17] 102 % of control | [18] 102 % of control

c1ccc2c(B(c3cccc4ccccc34)c3cccc4ccccc34)cccc2c1
inactive: [19] 94 % of control | [20] 97 % of control | [21] 102 % of control

COC1C(COS(=O)(=O)c2ccc(C)cc2)OC2OC(C)(C)OC21 (stereo not drawn)
inactive: dose: 100.0 mg/kg/injection, schedule: Q04DX003 (ip), vehicle: other 92 % of control | dose: 200.0 mg/kg/injection, schedule: Q04DX003 (ip), vehicle: other 97 % of control | dose: 400.0 mg/kg/injection, schedule: Q04DX003 (ip), vehicle: other 101 % of control

O=C1c2c(cccc2NCCO)Cc2cccc(NCCO)c21
inactive: [16] 102 % of control | [19] 98 % of control | [17] 104 % of control | [20] 93 % of control | [18] 96 % of control | [21] 96 % of control

CC(=O)CCC(C)(C)[N+](=O)[O-]
inactive: dose: 75.0 mg/kg/injection, schedule: Q01DX009 (ip), vehicle: acetone 97 % of control | dose: 150.0 mg/kg/injection, schedule: Q01DX009 (ip), vehicle: acetone 94 % of control | dose: 300.0 mg/kg/injection, schedule: Q01DX009 (ip), vehicle: acetone 95 % of control

CCOC(=O)CCCSCCCC(=O)OCC
inactive: [14] 111 % of control | dose: 100.0 mg/kg/injection, schedule: Q04DX003 (ip), vehicle: saline 111 % of control | [15] 101 % of control | dose: 200.0 mg/kg/injection, schedule: Q04DX003 (ip), vehicle: saline 98 % of control | dose: 400.0 mg/kg/injection, schedule: Q01DX009 (ip), vehicle: saline 110 % of control | dose: 400.0 mg/kg/injection, schedule: Q04DX003 (ip), vehicle: saline 88 % of control
